Experimental data: BindingDB's records for doi:10.1021/jm00018a001 (Smithkline Beecham Pharmaceuticals, 1995)

Columns and labels:
[1] = target: Alpha-1B adrenergic receptor (Mesocricetus auratus) (UniProt P18841); experiment: Binding affinity against Alpha-1B adrenergic receptor from hamster clones.
[2] = target: Alpha-1B adrenergic receptor (Mesocricetus auratus) (UniProt P18841); experiment: The compound was tested for binding affinity against Alpha-1B adrenergic receptor, from hamster clones.

Alpha-1B adrenergic receptor (Mesocricetus auratus), sequence (P18841 whole entry, looked up): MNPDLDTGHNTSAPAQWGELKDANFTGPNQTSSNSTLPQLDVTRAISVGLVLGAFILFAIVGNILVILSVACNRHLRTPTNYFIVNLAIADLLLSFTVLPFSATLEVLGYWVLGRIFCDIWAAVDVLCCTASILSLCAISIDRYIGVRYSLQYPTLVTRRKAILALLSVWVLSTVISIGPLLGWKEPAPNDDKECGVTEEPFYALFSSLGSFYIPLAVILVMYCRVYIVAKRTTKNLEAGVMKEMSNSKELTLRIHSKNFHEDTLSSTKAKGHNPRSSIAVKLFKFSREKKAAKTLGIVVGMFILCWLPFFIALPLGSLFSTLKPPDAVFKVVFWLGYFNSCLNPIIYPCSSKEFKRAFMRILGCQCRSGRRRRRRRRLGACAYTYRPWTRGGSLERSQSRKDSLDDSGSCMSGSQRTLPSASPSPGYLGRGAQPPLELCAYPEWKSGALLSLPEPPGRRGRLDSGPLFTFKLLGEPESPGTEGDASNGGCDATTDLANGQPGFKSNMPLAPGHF

Row | Structure (SMILES) | Ki [1] [nM] | Ki [2] [nM]
1 | COc1cc2c(cc1OC)CN(c1cc(N)c3cc(OC)c(OC)cc3n1)CC2 | 0.11 | –
2 | COc1cc2nc(N(C)CCCNC(=O)C3CCCO3)nc(N)c2cc1OC (stereo not drawn) [N-{3-[(4-amino-6,7-dimethoxyquinazolin-2-yl)(methyl)amino]propyl}tetrahydrofuran-2-carboxamide] | 12 | –
3 | O=C(NC1CCN(CCc2c[nH]c3ccccc23)CC1)c1ccccc1 [N-{1-[2-(1H-Indol-3-yl)-ethyl]-piperidin-4-yl}-benzamide(indoramin)] | – | 25
